Results: patent US11655232B2 (Celgene Corporation, priority 2003, dated 2023)
Converted amounts (≈) assume the structure as drawn. “And” between values parts separate entries of the source, which are not always exact repeats. Identical values can stand only once. “Also recorded” adds a separate entry of the source. Marks after values point to notes of the source that are not given here.

Assays:
[1] = Interconversion slurry experiments
Description: Interconversion experiments were carried out by making slurries containing two forms in a saturated solvent. The slurries were agitated for approximately 7-20 days at ambient temperature. The insoluble solids were recovered by filtration and analyzed using XRPD.

[2] = Desolvation by heating; assay type: physicochemical; settings: about 150° C. for about five minutes
[3] = Moisture sorption/desorption; assay type: physicochemical
Description: Moisture sorption/desorption data were collected on a VTI SGA-100 moisture balance system. For sorption isotherms, a sorption range of 5 to 95% relative humidity (RH) and a desorption range of 95 to 5% RH in 10% RH increments was used for analysis. The sample was not dried prior to analysis. Equilibrium criteria used for analysis were less than 0.0100 weight percent change in 5 minutes with a maximum equilibration time of 3 hours if the weight criterion was not met. Data were not corrected for the initial moisture content of the samples.

[4] = Intrinsic dissolution (Woods apparatus); assay type: physicochemical; settings: for dissolution rates (estimated) / Final Form of undissolved solids after intrinsic dissolution (XRPD) / Intrinsic Dissolution #2 (rate): HCl buffer pH 1.8, 1% sodium lauryl sulfate; for Final Form of undissolved solids after intrinsic dissolution (XRPD) / Intrinsic Dissolution #1 (rate) / Intrinsic Dissolution #2 (rate): 37° C.; for Average Intrinsic Dissolution Rate: average of experiments #1 and #2; for Intrinsic Dissolution #1 (rate): experiment #1, 900 mL HCl buffer pH 1.8, 1% sodium lauryl sulfate; for Intrinsic Dissolution #1 (rate) / Intrinsic Dissolution #2 (rate): 50 rpm; for Intrinsic Dissolution #2 (rate): experiment #2
Description: Dissolution experiments were carried out in a VanKel VK6010-8 dissolution apparatus equipped with a VK650A heater/circulator. An intrinsic dissolution apparatus (Woods apparatus) was used. Samples were compressed at 1.5 metric tons (1000 psi) for 1 min using the Woods apparatus in a hydraulic press, giving a sample surface of 0.50 cm^2. […] The medium was degassed by vacuum filtration through a 0.22-μm nylon filter disk and maintained at 37° C. The apparatus was rotated at 50 rpm for each experiment. Aliquots were filtered immediately using 0.2-μm nylon syringe filters. In some cases, the undissolved solids were recovered and analyzed by X-ray powder diffraction (XRPD).
(§1) Diffracted radiation was detected by a NaI scintillation detector.

[5] = Compression and grinding, form check by XRPD; assay type: physicochemical; settings: compressed into disks in Woods apparatus, 2 metric tons, ground gently
Description: as §1
Approximately 200 mg each of Forms A and B were compressed into disks in the Woods apparatus using 2 metric tons of pressure. The samples were subsequently scraped out, ground gently, and analyzed by XRPD. […] (See Table 7).

[6] = Temperature/relative humidity stress storage; assay type: physicochemical; settings: about 85 days; room temperature/0% RH and 40° C./93% RH
[7] = Equilibrium solubility in dissolution medium; settings: for Final Form of solids remaining from solubility experiment (XRPD) / Concentration: HCl buffer pH 1.8, 1% sodium lauryl sulfate; for Final Form of solids remaining from solubility experiment (XRPD): final time point
Description: A solid sample of 400-450 mg was stirred in 50 mL of dissolution medium (HCl buffer, pH 1.8, with 1% sodium lauryl sulfate) using a mechanical stir rod. Aliquots were filtered using 0.2-μm nylon syringe filters and immediately diluted 1 mL→50 mL, then 5 mL→25 mL with dissolution medium in Class A glassware, a final dilution factor of 250.
Dissolution and solubility samples solutions were analyzed by a Beckman DU 640 single-beam spectrophotometer. A 1.000-cm quartz cuvette and an analysis wavelength of 228.40 nm were utilized. The detector was zeroed with a cuvette filled with dissolution medium.
XRPD analyses were carried out on a Shimadzu XRD-6000 X-ray powder diffractometer using Cu Kα radiation. The instrument is equipped with a fine focus X-ray tube. The tube power and amperage were set at 40 kV and 40 mA, respectively. The divergence and scattering slits were set at 1° and the receiving slit was set at 0.15 mm. Diffracted radiation was detected by a NaI scintillation detector. A theta-two theta continuous scan at 3°/min (0.4 sec/0.02° step) from 2.5 to 40°2θ was used. A silicon standard was analyzed each day to check the instrument alignment. Samples were packed in an aluminum holder with silicon insert.

[8] = from 5 to 95% relative humidity

SMILES: Nc1cccc2c1CN(C1CCC(=O)NC1=O)C2=O (stereo not shown) [Form C, 3-(4-amino-1-oxo-1,3 dihydro-isoindol-2-yl)-piperidine-2,6-dione]
- interconversion / stability in solvent system ([1]; THF solvent system): typically converts to Form A
- interconversion / stability in solvent system ([1]; acetone solvent system): most stable form
- interconversion / stability in solvent system ([1]; aqueous solvent systems): typically converts to Form E
- form after heating (desolvation) [2]: will typically convert to Form A
- hygroscopicity (summary) [3]: not hygroscopic below about 85% RH
- weight loss ([3]; at 95% relative humidity): about 6.03%
- weight gain on moisture sorption ([3]; from 5 to 85% relative humidity): does not exhibit a significant weight gain

SMILES: Nc1cccc2c1CN(C1CCC(=O)NC1=O)C2=O (stereo not shown) [Form H, 3-(4-amino-1-oxo-1,3 dihydro-isoindol-2-yl)-piperidine-2,6-dione]
- interconversion ([1]; slurried in water with either Forms A or B, about 14 days): can convert to Form E

SMILES: Nc1cccc2c1CN(C1CCC(=O)NC1=O)C2=O (stereo not shown) [Form D, 3-(4-amino-1-oxo-1,3 dihydro-isoindol-2-yl)-piperidine-2,6-dione]
- interconversion / stability in solvent system ([1]; THF solvent system): capable of converting to Form A
- form after heating (desolvation) [2]: will typically convert to Form A
- hygroscopicity (summary) [3]: either weakly or not hygroscopic
- weight gain on moisture sorption [3, 8]: does not exhibit a significant weight gain

SMILES: Nc1cccc2c1CN(C1CCC(=O)NC1=O)C2=O (single isomer, unassigned) [Form B, 3-(4-amino-1-oxo-1,3 dihydro-isoindol-2-yl)-piperidine-2,6-dione]
- Cumulative Amount Dissolved per Unit Area ([4]; Experiment #1, 5 min): 10.80^b mg/cm2
- Cumulative Amount Dissolved per Unit Area ([4]; Experiment #1, 10 min): 6.85 mg/cm2
- Cumulative Amount Dissolved per Unit Area ([4]; Experiment #1, 20 min): 10.25 mg/cm2
- Cumulative Amount Dissolved per Unit Area ([4]; Experiment #1, 30 min): 14.35 mg/cm2
- Cumulative Amount Dissolved per Unit Area ([4]; Experiment #1, 45 min): 20.57 mg/cm2
- Cumulative Amount Dissolved per Unit Area ([4]; Experiment #1, 60 min): 25.70 mg/cm2
- Cumulative Amount Dissolved per Unit Area ([4]; Experiment #1, 90 min): 34.34 mg/cm2
- Cumulative Amount Dissolved per Unit Area ([4]; Experiment #2, 5 min): 5.04 mg/cm2
- Cumulative Amount Dissolved per Unit Area ([4]; Experiment #2, 10 min): 6.12 mg/cm2
- Cumulative Amount Dissolved per Unit Area ([4]; Experiment #2, 20 min): 7.73 mg/cm2
- Cumulative Amount Dissolved per Unit Area ([4]; Experiment #2, 30 min): 12.72 mg/cm2
- Cumulative Amount Dissolved per Unit Area ([4]; Experiment #2, 45 min): 17.33 mg/cm2
- Cumulative Amount Dissolved per Unit Area ([4]; Experiment #2, 60 min): 21.93 mg/cm2
- Cumulative Amount Dissolved per Unit Area ([4]; Experiment #2, 90 min): 31.64 mg/cm2
- Cumulative Amount Dissolved per Unit Area ([4]; Experiment #2, 120 min): 41.31 mg/cm2
- Cumulative Amount Dissolved per Unit Area ([4]; Experiment #2, 150 min): 49.54 mg/cm2
- dissolution rates (estimated) [4]: 0.34 mg/cm²/min
- Final Form of undissolved solids after intrinsic dissolution (XRPD) [4]: did not change
- Average Intrinsic Dissolution Rate [4]: 0.34 mg per cm^2 per minute
- Intrinsic Dissolution #1 (rate) [4]: 0.35 mg per cm^2 per minute
- Intrinsic Dissolution #2 (rate) [4]: 0.32 mg per cm^2 per minute
- Final Form after pressing (compression and grinding, XRPD) [5]: does not cause a form change
- form after stress storage [6]: does not convert to a different form
- interconversion / stability in solvent system ([1]; THF solvent system): typically converts to Form A
- interconversion / stability in solvent system ([1]; acetone solvent system): typically converts to Form C
- interconversion / stability in solvent system ([1]; anhydrous solvent systems): converts to other forms
- interconversion ([1]; in the presence of water): can convert to Form E
- weight gain on moisture sorption [3, 8]: does not exhibit a significant weight gain
- Final Form of solids remaining from solubility experiment (XRPD) [7]: Form B
- Solubility ([7]; HCl buffer, pH 1.8, with 1% sodium lauryl sulfate, 25° C., estimated): 5800 µg/mL (≈ 22.4 mM)
- Concentration stabilized ([7]; final three time points (180, 420, 650 min)): 5600 to 5700 µg/mL
- stability in water (suggested by remaining solids) ([7]; slurry in dissolution medium up to 650 min): good stability in water
- Concentration ([7]; time point 7 min, 25° C.): 1630 µg/mL
- Concentration ([7]; time point 15 min, 25° C.): 2140 µg/mL
- Concentration ([7]; time point 30 min, 25° C.): 2330 µg/mL
- Concentration ([7]; time point 60 min, 25° C.): 2940 µg/mL
- Concentration ([7]; time point 90 min, 25° C.): 3300 µg/mL and 3340 µg/mL
- Concentration ([7]; time point 180 min, 25° C.): 5670 µg/mL
- Concentration ([7]; time point 420 min, 25° C.): 5760 µg/mL
- Concentration ([7]; time point 650 min, 25° C.): 5610 µg/mL

SMILES: Nc1cccc2c1CN(C1CCC(=O)NC1=O)C2=O (single isomer, unassigned) [Form A, 3-(4-amino-1-oxo-1,3 dihydro-isoindol-2-yl)-piperidine-2,6-dione]
- Cumulative Amount Dissolved per Unit Area ([4]; Experiment #1, 5 min): 5.76 mg/cm2
- Cumulative Amount Dissolved per Unit Area ([4]; Experiment #1, 10 min): 7.73 mg/cm2
- Cumulative Amount Dissolved per Unit Area ([4]; Experiment #1, 20 min): 11.31 mg/cm2
- Cumulative Amount Dissolved per Unit Area ([4]; Experiment #1, 30 min): 15.59 mg/cm2
- Cumulative Amount Dissolved per Unit Area ([4]; Experiment #1, 45 min): 21.98 mg/cm2
- Cumulative Amount Dissolved per Unit Area ([4]; Experiment #1, 60 min): 27.11 mg/cm2
- Cumulative Amount Dissolved per Unit Area ([4]; Experiment #1, 90 min): 34.17 mg/cm2
- Cumulative Amount Dissolved per Unit Area ([4]; Experiment #2, 5 min): 4.50 mg/cm2
- Cumulative Amount Dissolved per Unit Area ([4]; Experiment #2, 10 min): 5.22 mg/cm2
- Cumulative Amount Dissolved per Unit Area ([4]; Experiment #2, 20 min): 7.54 mg/cm2
- Cumulative Amount Dissolved per Unit Area ([4]; Experiment #2, 30 min): 11.46 mg/cm2
- Cumulative Amount Dissolved per Unit Area ([4]; Experiment #2, 45 min): 15.01 mg/cm2
- Cumulative Amount Dissolved per Unit Area ([4]; Experiment #2, 60 min): 18.38 mg/cm2
- Cumulative Amount Dissolved per Unit Area ([4]; Experiment #2, 90 min): 24.38 mg/cm2
- Cumulative Amount Dissolved per Unit Area ([4]; Experiment #2, 120 min): 30.35 mg/cm2
- Cumulative Amount Dissolved per Unit Area ([4]; Experiment #2, 150 min): 35.26 mg/cm2
- dissolution rates (estimated) [4]: 0.35 mg/cm²/min
- Final Form of undissolved solids after intrinsic dissolution (XRPD) [4]: did not change; also recorded: does not indicate a form change
- Average Intrinsic Dissolution Rate [4]: 0.29^a mg per cm^2 per minute
- Intrinsic Dissolution #1 (rate) [4]: 0.35 mg per cm^2 per minute
- Intrinsic Dissolution #2 (rate) [4]: 0.22 mg per cm^2 per minute and 0.22^a mg per cm^2 per minute
- true intrinsic dissolution rate (believed) ([4]; judged from experiment #1, since #2 disk surface may have converted to Form E): ~0.35 mg per cm^2 per minute
- Final Form after pressing (compression and grinding, XRPD) [5]: does not cause a form change
- form after stress storage [6]: typically does not convert to a different form
- thermodynamic stability among anhydrous polymorphs (summary) [1]: most thermodynamically stable anhydrous polymorph
- interconversion / stability in solvent system ([1]; acetone solvent system): can convert to Form C
- interconversion / stability in solvent system ([1]; anhydrous solvent systems): tends to be stable
- interconversion / stability in solvent system ([1]; aqueous solvent systems): can convert to Form B
- interconversion ([1]; water systems, in the presence of Form E): tends to convert to Form E
- hygroscopicity (summary) [3]: weakly or not hygroscopic
- weight lost from start to finish ([3]; at 5% relative humidity after drying from 95% back down to 5%): about 0.003 % by weight
- weight gain on moisture sorption [3, 8]: does not exhibit a significant weight gain
- Final Form of solids remaining from solubility experiment (XRPD) [7]: unstable in the medium, converting to Form E
- Concentration ([7]; time point 7 min, 25° C.): 6000 µg/mL
- Concentration ([7]; time point 15 min, 25° C.): 6110 µg/mL
- Concentration ([7]; time point 30 min, 25° C.): 6200 µg/mL and 6160 µg/mL
- Concentration ([7]; time point 60 min, 25° C.): 6100 µg/mL
- Concentration ([7]; time point 90 min, 25° C.): 5460 µg/mL
- Concentration ([7]; time point 150 min, 25° C.): 4700 µg/mL and 4730 µg/mL
